Results on 29 molecules are retold here after patent US10301280B2 (Plexxikon Inc., priority 2012, dated 2019).

For one assay, the target named is c-kit mutant D816V (Homo sapiens (Human), UniProt P10721, D816V/DEL694-753). The assay can be described thus: c-Kit mutant D816V biochemical assay (AlphaScreen). The note with it: c-kit D816V biochemical inhibitory activity. The gist of the method: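 His-tagged c-Kit D816V kinase domain (551-934, Δ694-753, E. coli) phosphorylating 30 nM biotin-(E4Y)10 at 10 μM ATP in HEPES pH 7.2 with Mg/Mn, 5% DMSO, 30 min at room temperature. PY20-acceptor/streptavidin-donor AlphaScreen detection after EDTA stop. IC50 from 8-point 1:3 titration.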
c-kit mutant D816V, sequence (P10721 other isoform, or with tags, fused parts or gaps D816V/del 694-753): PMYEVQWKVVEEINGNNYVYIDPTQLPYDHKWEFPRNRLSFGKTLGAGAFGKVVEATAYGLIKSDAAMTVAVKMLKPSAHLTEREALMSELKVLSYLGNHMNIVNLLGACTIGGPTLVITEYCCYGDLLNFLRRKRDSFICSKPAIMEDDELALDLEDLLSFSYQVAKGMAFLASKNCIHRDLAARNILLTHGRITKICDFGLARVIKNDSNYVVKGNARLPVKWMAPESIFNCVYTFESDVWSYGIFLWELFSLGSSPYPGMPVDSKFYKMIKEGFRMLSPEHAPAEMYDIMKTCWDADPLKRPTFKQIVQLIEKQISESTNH

Assay [1] has as its system BaF3-FL KIT D816V or BaF3-FL KIT V560G/D816V cell line. As to the kind of experiment: Cell-based assays of c-Kit mutant kinase activity (cell growth, ATPlite). Conditions: at least one of the c-kit cell assays of Example 26. In short, it runs like this:
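BaF3 cells dependent on full-length human KIT (D816V or V560G/D816V) seeded at 1×10^4 cells/well in RPMI with 10% FBS. Eight-point 1:3 dilutions from 10 μM top final (0.2% DMSO), 3 days at 37° C., 5% CO2. ATPlite luminescence gave IC50.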
(In ATP-based viability assays light output follows the ATP content of the culture.)

pIC50: −log10 of the molar value.

Regarding `COC(=O)c1cccc(C(=O)Nc2cnc3[nH]c(-c4ccccc4)cc3c2)c1` [P-2290, methyl 3-[(2-phenyl-1H-pyrrolo[2,3-b]pyridin-5-yl)carbamoyl]benzoate], at c-kit mutant D816V, the IC50 (commonly the midpoint of a concentration-inhibition curve) lay in the range of 10 to 200 µM. The pIC50 (usually the negative decadic logarithm of the IC50, by convention in mol/L) in assay [1] is greater than 5.00.

In turn, `Cc1n[nH]c(C(=O)Nc2cnc3[nH]c(-c4ccncc4Cl)cc3c2)c1C` [P-2278, N-[2-(3-chloro-4-pyridyl)-H-pyrrolo[2,3-b]pyridin-5-yl]-3,4-dimethyl-1H-pyrazole-5-carboxamide] returned an IC50 on c-kit mutant D816V of 0.0001 to 1 µM. In assay [1], this molecule gave a pIC50 greater than 5.00.

On to `Cc1n[nH]c(C(=O)Nc2cnc3[nH]c(-c4ccc(F)cc4)cc3c2)c1C` [P-2024, N-[2-(4-fluorophenyl)-1H-pyrrolo[2,3-b]pyridin-5-yl]-3,4-dimethyl-1H-pyrazole-5-carboxamide], for which, on c-kit mutant D816V, the IC50 was in the range of 0.0001 to 1 µM. For the same molecule, in assay [1], the pIC50 is greater than 5.00.

For `Cc1n[nH]c(C(=O)Nc2cnc3[nH]c(-c4cccc(C(=O)O)c4C)cc3c2)c1C` [P-2297, 3-[5-[(3,4-dimethyl-1H-pyrazole-5-carbonyl)amino]-1H-pyrrolo[2,3-b]pyridin-2-yl]-2-methyl-benzoic acid], the IC50 against c-kit mutant D816V fell in the range of 0.0001 to 1 µM. The same molecule showed a pIC50 in assay [1] greater than 5.00.

On c-kit mutant D816V, `Cc1n[nH]c(C(=O)Nc2cnc3[nH]c(-c4cccc5c4OCC5)cc3c2)c1C` [P-2273, N-[2-(2,3-dihydrobenzofuran-7-yl)-1H-pyrrolo[2,3-b]pyridin-5-yl]-3,4-dimethyl-H-pyrazole-5-carboxamide] showed an IC50 of 0.0001 to 1 µM. The pIC50 in assay [1] is greater than 5.00.

Regarding `Cc1n[nH]c(C(=O)Nc2cnc3[nH]c(C4=CCN(C(=O)N5CCOCC5)CC4)cc3c2)c1C` [P-2034, 3,4-dimethyl-N-[2-[1-(morpholine-4-carbonyl)-3,6-dihydro-2H-pyridin-4-yl]-1H-pyrrolo[2,3-b]pyridin-5-yl]-1H-pyrazole-5-carboxamide], on c-kit mutant D816V, the 50% inhibitory concentration (IC50) was 0.0001 to 1 µM. In assay [1], this molecule gave a pIC50 greater than 5.00.

`CCOC(=O)Nc1cccc(Nc2ncc(NC(=O)c3[nH]nc(C)c3C)cn2)c1` [P-2055, ethyl N-[3-[[5-[(3,4-dimethyl-1H-pyrazole-5-carbonyl)amino]pyrimidin-2-yl]amino]phenyl]carbamate]: the IC50 against c-kit mutant D816V was 0.0001 to 1 µM. Further, in assay [1], the pIC50 is greater than 5.00.

`Cc1cc(Cl)ccc1-c1cc2cc(NC(=O)c3[nH]nc(C)c3C)cnc2[nH]1` [P-2277, N-[2-(4-chloro-2-methyl-phenyl)-1H-pyrrolo[2,3-b]pyridin-5-yl]-3,4-dimethyl-1H-pyrazole-5-carboxamide] came in with an IC50 against c-kit mutant D816V of 0.0001 to 1 µM. Besides, the pIC50 in assay [1] is greater than 5.00.

For `COc1cncc(-c2cc3cc(NC(=O)c4[nH]nc(C)c4C)cnc3[nH]2)c1` [P-2183, N-[2-(5-methoxy-3-pyridyl)-1H-pyrrolo[2,3-b]pyridin-5-yl]-3,4-dimethyl-1H-pyrazole-5-carboxamide], at c-kit mutant D816V, the IC50 lay in the range of 0.0001 to 1 µM. In assay [1], the pIC50 was greater than 5.00.

On to `Cc1n[nH]c(C(=O)Nc2cnc3[nH]nc(-c4cccc(N5CCN(C(=O)OC(C)(C)C)CC5)c4)c3c2)c1C` [P-2162, tert-butyl 4-[3-[5-[(3,4-dimethyl-1H-pyrazole-5-carbonyl)amino]-1H-pyrazolo[3,4-b]pyridin-3-yl]phenyl]piperazine-1-carboxylate], for which the IC50 at c-kit mutant D816V lay within 1 to 10 µM. Besides, the negative logarithm of the IC50 (pIC50) in assay [1] is greater than 5.00.

The molecule `Cc1n[nH]c(C(=O)Nc2cnc3[nH]c(-c4ccc(F)c(-c5nn[nH]n5)c4)cc3c2)c1C` [P-2174, N-[2-[4-fluoro-3-(2H-tetrazol-5-yl)phenyl]-1H-pyrrolo[2,3-b]pyridin-5-yl]-3,4-dimethyl-1H-pyrazole-5-carboxamide] came in with an IC50 at c-kit mutant D816V of 0.0001 to 1 µM. This molecule also had a pIC50 in assay [1] greater than 5.00.

`Cc1n[nH]c(C(=O)Nc2cnc3[nH]nc(-c4cccc(N5CCNCC5)c4)c3c2)c1C` [P-2166, 3,4-dimethyl-N-[3-(3-piperazin-1-ylphenyl)-1H-pyrazolo[3,4-b]pyridin-5-yl]-1H-pyrazole-5-carboxamide] returned an IC50 against c-kit mutant D816V of 0.0001 to 1 µM. For the same molecule, the pIC50 in assay [1] is greater than 5.00.

`Cc1n[nH]c(C(=O)Nc2cnc3[nH]c(-c4c(C)nn(C)c4C)cc3c2)c1C` [P-2165, 3,4-dimethyl-N-[2-(1,3,5-trimethylpyrazol-4-yl)-1H-pyrrolo[2,3-b]pyridin-5-yl]-1H-pyrazole-5-carboxamide] had an IC50 on c-kit mutant D816V of 1 to 10 µM. This molecule also had a pIC50 in assay [1] greater than 5.00.

At c-kit mutant D816V, `Cc1n[nH]c(C(=O)Nc2cnc3[nH]nc(C)c3c2)c1C` [P-2040, 3,4-dimethyl-N-(3-methyl-1H-pyrazolo[3,4-b]pyridin-5-yl)-1H-pyrazole-5-carboxamide] yielded a 50% inhibitory concentration (IC50) of 0.0001 to 1 µM. Also, in assay [1], the pIC50 was greater than 5.00.

`[2H]c1c([2H])c([2H])c(-c2cc3cc(NC(=O)c4[nH]nc(C)c4C)cnc3[nH]2)c([2H])c1[2H]` [P-2164, 3,4-dimethyl-N-[2-(2,3,4,5,6-pentadeuteriophenyl)-1H-pyrrolo[2,3-b]pyridin-5-yl]-1H-pyrazole-5-carboxamide] gave an IC50 against c-kit mutant D816V of 0.0001 to 1 µM. The same molecule had a pIC50 in assay [1] greater than 5.00.

Turning to `CCc1ccc(-c2cc3cc(NC(=O)c4[nH]nc(C)c4C)cnc3[nH]2)cn1` [P-2178, N-[2-(6-ethyl-3-pyridyl)-1H-pyrrolo[2,3-b]pyridin-5-yl]-3,4-dimethyl-1H-pyrazole-5-carboxamide], at c-kit mutant D816V, the IC50 lay in the range of 0.0001 to 1 µM. Moreover, in assay [1], the pIC50 is greater than 5.00.

Regarding `Cc1cc(C(=O)Nc2cnc3[nH]c(C4=CCN(C(=O)C5CC5)CC4)cc3c2)n[nH]1` [P-2042, N-[2-[1-(cyclopropanecarbonyl)-3,6-dihydro-2H-pyridin-4-yl]-1H-pyrrolo[2,3-b]pyridin-5-yl]-5-methyl-1H-pyrazole-3-carboxamide], on c-kit mutant D816V, the IC50 was 0.0001 to 1 µM. In assay [1], this molecule gave a pIC50 greater than 5.00.

`Cc1n[nH]c(C(=O)Nc2cnc3[nH]c(-c4ccnc(C(C)C)c4)cc3c2)c1C` [P-2163, N-[2-(2-isopropyl-4-pyridyl)-1H-pyrrolo[2,3-b]pyridin-5-yl]-3,4-dimethyl-1H-pyrazole-5-carboxamide]: the IC50 at c-kit mutant D816V was 0.0001 to 1 µM. The same molecule showed a pIC50 in assay [1] greater than 5.00.

`Cc1n[nH]c(C(=O)Nc2cnc3[nH]c(-c4cnccc4C(N)=O)cc3c2)c1C` [P-2272, 3-[5-[(3,4-dimethyl-1H-pyrazole-5-carbonyl)amino]-1H-pyrrolo[2,3-b]pyridin-2-yl]pyridine-4-carboxamide] had an IC50 at c-kit mutant D816V of 0.0001 to 1 µM. Further, the pIC50 in assay [1] was greater than 5.00.

On c-kit mutant D816V, `O=C(Nc1cnc2[nH]c(-c3ccc(F)cc3)cc2c1)c1n[nH]c2ccccc12` [P-2046, N-[2-(4-fluorophenyl)-1H-pyrrolo[2,3-b]pyridin-5-yl]-1H-indazole-3-carboxamide] registered an IC50 of 0.0001 to 1 µM. This molecule showed a pIC50 in assay [1] greater than 5.00.

Turning to `O=C(Nc1cnc2[nH]c(-c3ccc(F)cc3)cc2c1)c1cccc2n[nH]cc12` [P-2027, N-[2-(4-fluorophenyl)-1H-pyrrolo[2,3-b]pyridin-5-yl]-2H-indazole-4-carboxamide], the IC50 on c-kit mutant D816V was 1 to 10 µM. Besides, the pIC50 in assay [1] was greater than 5.00.

Consider `Cc1n[nH]c(C(=O)Nc2cnc3[nH]c(C4=CCOCC4)cc3c2)c1C` [P-2271, N-[2-(3,6-dihydro-2H-pyran-4-yl)-1H-pyrrolo[2,3-b]pyridin-5-yl]-3,4-dimethyl-1H-pyrazole-5-carboxamide], for which the IC50 on c-kit mutant D816V lay within 0.0001 to 1 µM. The same molecule gave a pIC50 in assay [1] greater than 5.00.

`CCNS(=O)(=O)c1cccc(Nc2ncc(NC(=O)c3[nH]nc(C)c3C)cn2)c1` [P-2050, N-[2-[3-(ethylsulfamoyl)anilino]pyrimidin-5-yl]-3,4-dimethyl-1H-pyrazole-5-carboxamide] registered an IC50 against c-kit mutant D816V of 1 to 10 µM. Also, the pIC50 in assay [1] was greater than 5.00.

Consider `Cc1n[nH]c(C(=O)Nc2cnc(Nc3cccc(N4CCOCC4)c3)nc2)c1C` [P-2051, 3,4-dimethyl-N-[2-(3-morpholinoanilino)pyrimidin-5-yl]-1H-pyrazole-5-carboxamide], for which the IC50 against c-kit mutant D816V fell in the range of 0.0001 to 1 µM. The same molecule had a pIC50 in assay [1] greater than 5.00.

For the molecule `Cc1n[nH]c(C(=O)Nc2cnc3[nH]c(C4=CCN(C(=O)N5CCOCC5)CC4)cc3c2)c1Cl` [P-2036, 4-chloro-3-methyl-N-[2-[1-(morpholine-4-carbonyl)-3,6-dihydro-2H-pyridin-4-yl]-1H-pyrrolo[2,3-b]pyridin-5-yl]-1H-pyrazole-5-carboxamide], the IC50 against c-kit mutant D816V was in the range of 0.0001 to 1 µM. In addition, the pIC50 in assay [1] was greater than 5.00.

`Cc1n[nH]c(C(=O)Nc2cnc3[nH]c(-c4ccc(C5(C(=O)O)CC5)cc4)cc3c2)c1C` [P-2294, 1-[4-[5-[(3,4-dimethyl-1H-pyrazole-5-carbonyl)amino]-1H-pyrrolo[2,3-b]pyridin-2-yl]phenyl]cyclopropanecarboxylic acid] came in with an IC50 against c-kit mutant D816V of 0.0001 to 1 µM. Besides, in assay [1], the pIC50 is greater than 5.00.

In turn, `Cc1n[nH]c(C(=O)Nc2cnc3[nH]c(-c4cccc5c4OC(F)(F)O5)cc3c2)c1C` [P-2281, N-[2-(2,2-difluoro-1,3-benzodioxol-4-yl)-1H-pyrrolo[2,3-b]pyridin-5-yl]-3,4-dimethyl-1H-pyrazole-5-carboxamide] displayed an IC50 against c-kit mutant D816V of 0.0001 to 1 µM. Moreover, the pIC50 in assay [1] is greater than 5.00.

`Cc1n[nH]c(C(=O)Nc2cnc3[nH]c(-c4ccnc(N5CCN(C(=O)C6CC6)CC5)c4)cc3c2)c1C` [P-2187, N-[2-[2-[4-(cyclopropanecarbonyl)piperazin-1-yl]-4-pyridyl]-1H-pyrrolo[2,3-b]pyridin-5-yl]-3,4-dimethyl-1H-pyrazole-5-carboxamide]: the IC50 against c-kit mutant D816V was 0.0001 to 1 µM. For the same molecule, the pIC50 in assay [1] was greater than 5.00.

In turn, `Cc1cc(-c2cc3cc(NC(=O)c4[nH]nc(C)c4C)cnc3[nH]2)ccc1C(=O)O` [P-2296, 4-[5-[(3,4-dimethyl-1H-pyrazole-5-carbonyl)amino]-1H-pyrrolo[2,3-b]pyridin-2-yl]-2-methyl-benzoic acid] displayed an IC50 against c-kit mutant D816V of 0.0001 to 1 µM. Besides, the pIC50 in assay [1] is greater than 5.00.
